The text below walks through data of BindingDB's records for patent US20250115607 (Hoffmann-La Roche, 2025).

What all share (assay): Phosphorylation Assay SIK1-3
Assay [1] has as its target Serine/threonine-protein kinase SIK3 (Homo sapiens, UniProt Q9Y2K2). The procedure: (§1) In the presence of SIK2 (resp. SIK1 or SIK3) and ATP the CHK-peptide ([…] with C-terminal arginine amide modification) were phosphorylated at one of the four feasible serine's. Only one phosphorylation is observed under the assay conditions. 60 nl of each compound dilution series (12 point; dilution factor 3, generally 30 μM to 170 pM) in DMSO were transferred by acoustic dispensing to the assay plate and 30 minutes pre-incubated (ambient temperature) after the addition of 5 μl SIK1 (5 nM) resp. 5 μl SIK2 (0.5 nM) or 7 μl SIK3 (1.5 nM) in assay-buffer (12.5 mM HEPES (pH 7.0), 10 mM magnesium acetate, 0.005% BSA). 10 μM CHK-peptide solution and 5 μl of 100 μM ATP for SIK1 & SIK2 resp. 3 μl for SIK3 in assay-buffer were added and incubated ambient for 45 minutes. 40 μl of 0.125% formic acid in water were added to quench the reaction. RapidFire (RF) Mass Spectrometry was utilized for data generation as described below. The multiple charged species (3-5 charges) for the phosphorylated and non-phosphorylated form measured by MRM (Multiple Reaction Monitoring; API5000 or 6500+) or EIC (Extracted Ion Current; QToF) were summed up and the ratio calculated (sum phosphorylated species/sum all species) for data evaluation. Normalization was performed by Genedata software based on the non-inhibition control DMSO and the commercially available STK inhibitor @1 μM YKL-05-099 (CAS number 1936529-65-5).

Assay [2] concerns the target Serine/threonine-protein kinase SIK1 (Homo sapiens, UniProt P57059). As to the method:
as §1

Assay [3] concerns the target Serine/threonine-protein kinase SIK2 (Homo sapiens, UniProt Q9H0K1). The procedure:
as §1

Serine/threonine-protein kinase SIK1, sequence (P57059 whole entry): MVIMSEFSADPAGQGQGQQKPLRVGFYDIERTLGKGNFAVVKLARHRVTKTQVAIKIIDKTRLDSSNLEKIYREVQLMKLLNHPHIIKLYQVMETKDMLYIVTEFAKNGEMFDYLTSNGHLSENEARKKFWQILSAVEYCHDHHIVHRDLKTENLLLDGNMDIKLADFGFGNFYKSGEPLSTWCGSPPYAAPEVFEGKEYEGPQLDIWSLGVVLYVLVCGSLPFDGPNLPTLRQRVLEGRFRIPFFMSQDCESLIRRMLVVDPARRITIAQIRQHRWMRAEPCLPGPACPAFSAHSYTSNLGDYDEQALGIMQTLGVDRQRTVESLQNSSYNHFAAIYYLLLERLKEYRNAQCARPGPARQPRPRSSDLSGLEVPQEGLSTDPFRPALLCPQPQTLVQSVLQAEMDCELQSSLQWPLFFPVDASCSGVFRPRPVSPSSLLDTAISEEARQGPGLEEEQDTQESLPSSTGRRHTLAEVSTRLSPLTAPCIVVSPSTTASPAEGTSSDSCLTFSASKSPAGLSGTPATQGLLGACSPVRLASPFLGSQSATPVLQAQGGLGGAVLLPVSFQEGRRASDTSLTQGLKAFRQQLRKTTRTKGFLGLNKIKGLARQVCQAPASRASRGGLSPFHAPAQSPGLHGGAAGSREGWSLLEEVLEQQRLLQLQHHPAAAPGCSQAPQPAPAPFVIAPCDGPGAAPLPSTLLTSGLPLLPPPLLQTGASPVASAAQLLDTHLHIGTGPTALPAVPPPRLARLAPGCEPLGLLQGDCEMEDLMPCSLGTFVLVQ
Serine/threonine-protein kinase SIK3, sequence (Q9Y2K2 whole entry): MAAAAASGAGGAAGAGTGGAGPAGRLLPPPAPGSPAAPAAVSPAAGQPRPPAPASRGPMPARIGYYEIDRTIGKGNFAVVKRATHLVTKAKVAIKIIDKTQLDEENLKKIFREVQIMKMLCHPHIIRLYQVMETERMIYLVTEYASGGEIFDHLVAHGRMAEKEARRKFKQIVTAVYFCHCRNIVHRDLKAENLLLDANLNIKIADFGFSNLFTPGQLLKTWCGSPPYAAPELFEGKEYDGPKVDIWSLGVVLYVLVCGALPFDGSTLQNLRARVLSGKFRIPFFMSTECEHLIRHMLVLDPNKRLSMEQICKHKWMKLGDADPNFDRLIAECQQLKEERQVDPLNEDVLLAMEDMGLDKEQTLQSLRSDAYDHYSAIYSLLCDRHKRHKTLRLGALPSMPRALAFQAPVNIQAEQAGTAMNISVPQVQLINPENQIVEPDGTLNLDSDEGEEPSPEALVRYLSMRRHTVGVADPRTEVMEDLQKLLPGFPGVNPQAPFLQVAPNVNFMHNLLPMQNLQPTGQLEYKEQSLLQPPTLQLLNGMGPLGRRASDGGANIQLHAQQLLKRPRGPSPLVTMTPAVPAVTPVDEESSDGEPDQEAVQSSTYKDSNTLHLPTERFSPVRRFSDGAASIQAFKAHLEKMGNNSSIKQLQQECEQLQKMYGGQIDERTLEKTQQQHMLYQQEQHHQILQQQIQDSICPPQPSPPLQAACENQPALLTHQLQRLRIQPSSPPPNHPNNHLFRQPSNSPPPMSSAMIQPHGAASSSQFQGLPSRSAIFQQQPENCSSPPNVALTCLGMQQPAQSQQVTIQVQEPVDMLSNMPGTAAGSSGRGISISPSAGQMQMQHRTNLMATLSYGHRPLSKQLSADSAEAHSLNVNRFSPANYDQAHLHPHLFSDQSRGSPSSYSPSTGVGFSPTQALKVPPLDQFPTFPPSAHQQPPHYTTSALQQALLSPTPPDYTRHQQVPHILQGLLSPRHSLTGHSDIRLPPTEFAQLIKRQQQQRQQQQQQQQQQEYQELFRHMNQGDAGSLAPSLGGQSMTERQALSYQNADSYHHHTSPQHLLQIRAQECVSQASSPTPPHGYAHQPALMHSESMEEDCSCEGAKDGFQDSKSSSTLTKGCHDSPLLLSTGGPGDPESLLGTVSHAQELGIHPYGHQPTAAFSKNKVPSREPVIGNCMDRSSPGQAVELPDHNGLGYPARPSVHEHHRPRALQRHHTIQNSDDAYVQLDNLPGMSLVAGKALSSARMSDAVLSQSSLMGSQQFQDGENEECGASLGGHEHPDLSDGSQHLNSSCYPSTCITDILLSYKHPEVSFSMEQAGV
Serine/threonine-protein kinase SIK2, sequence (Q9H0K1 whole entry): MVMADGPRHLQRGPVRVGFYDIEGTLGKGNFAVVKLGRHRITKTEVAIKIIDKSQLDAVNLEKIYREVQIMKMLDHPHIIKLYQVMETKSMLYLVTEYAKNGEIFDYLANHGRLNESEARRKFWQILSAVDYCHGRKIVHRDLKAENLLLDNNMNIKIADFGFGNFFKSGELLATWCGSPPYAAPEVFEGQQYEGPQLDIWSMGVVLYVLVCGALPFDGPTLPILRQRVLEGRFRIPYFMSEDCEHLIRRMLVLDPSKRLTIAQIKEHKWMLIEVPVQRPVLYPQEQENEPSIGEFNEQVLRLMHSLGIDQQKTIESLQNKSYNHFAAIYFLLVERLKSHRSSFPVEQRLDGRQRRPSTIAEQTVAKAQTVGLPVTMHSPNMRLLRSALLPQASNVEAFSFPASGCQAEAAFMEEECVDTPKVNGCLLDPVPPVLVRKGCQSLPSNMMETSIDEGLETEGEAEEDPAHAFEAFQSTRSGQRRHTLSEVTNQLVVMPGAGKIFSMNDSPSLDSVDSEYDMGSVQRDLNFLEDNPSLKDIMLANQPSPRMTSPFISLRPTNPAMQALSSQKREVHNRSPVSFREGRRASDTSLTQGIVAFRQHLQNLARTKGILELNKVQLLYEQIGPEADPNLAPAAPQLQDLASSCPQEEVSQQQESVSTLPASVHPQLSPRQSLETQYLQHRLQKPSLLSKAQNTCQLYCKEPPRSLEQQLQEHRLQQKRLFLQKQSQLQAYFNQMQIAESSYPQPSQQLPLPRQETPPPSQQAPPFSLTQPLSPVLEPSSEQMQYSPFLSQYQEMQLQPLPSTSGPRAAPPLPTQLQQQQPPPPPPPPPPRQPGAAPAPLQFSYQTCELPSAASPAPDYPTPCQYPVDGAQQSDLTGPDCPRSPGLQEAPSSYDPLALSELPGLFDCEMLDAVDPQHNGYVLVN

On to `CC(=O)c1ccc(-n2cnc3cc(N(C)c4ccc(C)nn4)ncc32)nc1-n1nc(C#N)cc1C` [US20250115607, Example 5], for which the IC50 was determined as 2060 nM in assay [1], 19000 nM in assay [2] and 687 nM in assay [3].
